Measured values reported in patent publication US9670213B2, “Pteridine ketone derivative and applications thereof as EGFR, BLK, and FLT3 inhibitor” (EAST CHINA UNIVERSITY OF SCIENCE AND TECHNOLOGY, priority 2012, dated 2017).

Legend:
Format in all cases: biochemical
LYNA = LYNA (Homo sapiens (Human), UniProt P07948); assay: Kinase selectivity analysis (Caliper mobility shift assay); settings: for inhibition at 1 µM: read-out: % inhibition (1 μM), 1 μM; for inhibition at 10 µM: read-out: % inhibition (10 μM), 10 μM
Chain of LYNA (P07948 whole entry, species assumed): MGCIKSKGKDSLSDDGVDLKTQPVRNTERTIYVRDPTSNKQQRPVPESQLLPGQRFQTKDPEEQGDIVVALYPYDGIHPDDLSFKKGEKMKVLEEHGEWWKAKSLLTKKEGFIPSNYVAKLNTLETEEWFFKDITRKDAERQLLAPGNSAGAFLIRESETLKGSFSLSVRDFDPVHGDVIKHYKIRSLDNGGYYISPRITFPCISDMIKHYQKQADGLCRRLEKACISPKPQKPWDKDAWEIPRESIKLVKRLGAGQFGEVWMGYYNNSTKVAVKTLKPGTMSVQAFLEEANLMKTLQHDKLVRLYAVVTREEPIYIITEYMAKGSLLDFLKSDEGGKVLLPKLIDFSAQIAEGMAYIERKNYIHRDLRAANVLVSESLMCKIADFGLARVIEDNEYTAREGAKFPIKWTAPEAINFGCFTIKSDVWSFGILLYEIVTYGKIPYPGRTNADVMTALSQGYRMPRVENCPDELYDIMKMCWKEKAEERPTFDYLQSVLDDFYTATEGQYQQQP
Description: (§1) Kinase selectivity analysis: kinase selectivity experiment was performed by Shanghai ChemPartner using Caliper assay screening platform. All of kinases and other materials were purchased from commercial companies.
(§2) 3. Preparation of assay plate: 5 μL of solution from each well of the 96-well temporary plate was added into a 384-well plate, and the experiment was independently repeated.
(§3) 5. Caliper readings: experimental data were collected on Caliper.
(§4) 6. Curve fitting: 1) conversion data were replicated from Caliper program. 2) the conversion value was converted into inhibition rate, inhibition rate %=(maximum−conversion value)/(maximum−minimum)*100, wherein “maximum” represents DMSO control, and minimum represents the low control.

BLK = BLK (Homo sapiens (Human), UniProt P51451); assay: as above; settings: for inhibition at 1 µM: read-out: % inhibition (1 μM), 1 μM; for inhibition at 10 µM: read-out: % inhibition (10 μM), 10 μM
Description: as §1, §2, §3, §4

FLT1 = FLT1 (Homo sapiens (Human), UniProt P17948); assay: as above; settings: for inhibition at 1 µM: read-out: % inhibition (1 μM), FLT1, 1 μM; for inhibition at 10 µM: read-out: % inhibition (10 μM), FLT1, 10 μM
Chain of FLT1 (P17948 27-1338, species assumed): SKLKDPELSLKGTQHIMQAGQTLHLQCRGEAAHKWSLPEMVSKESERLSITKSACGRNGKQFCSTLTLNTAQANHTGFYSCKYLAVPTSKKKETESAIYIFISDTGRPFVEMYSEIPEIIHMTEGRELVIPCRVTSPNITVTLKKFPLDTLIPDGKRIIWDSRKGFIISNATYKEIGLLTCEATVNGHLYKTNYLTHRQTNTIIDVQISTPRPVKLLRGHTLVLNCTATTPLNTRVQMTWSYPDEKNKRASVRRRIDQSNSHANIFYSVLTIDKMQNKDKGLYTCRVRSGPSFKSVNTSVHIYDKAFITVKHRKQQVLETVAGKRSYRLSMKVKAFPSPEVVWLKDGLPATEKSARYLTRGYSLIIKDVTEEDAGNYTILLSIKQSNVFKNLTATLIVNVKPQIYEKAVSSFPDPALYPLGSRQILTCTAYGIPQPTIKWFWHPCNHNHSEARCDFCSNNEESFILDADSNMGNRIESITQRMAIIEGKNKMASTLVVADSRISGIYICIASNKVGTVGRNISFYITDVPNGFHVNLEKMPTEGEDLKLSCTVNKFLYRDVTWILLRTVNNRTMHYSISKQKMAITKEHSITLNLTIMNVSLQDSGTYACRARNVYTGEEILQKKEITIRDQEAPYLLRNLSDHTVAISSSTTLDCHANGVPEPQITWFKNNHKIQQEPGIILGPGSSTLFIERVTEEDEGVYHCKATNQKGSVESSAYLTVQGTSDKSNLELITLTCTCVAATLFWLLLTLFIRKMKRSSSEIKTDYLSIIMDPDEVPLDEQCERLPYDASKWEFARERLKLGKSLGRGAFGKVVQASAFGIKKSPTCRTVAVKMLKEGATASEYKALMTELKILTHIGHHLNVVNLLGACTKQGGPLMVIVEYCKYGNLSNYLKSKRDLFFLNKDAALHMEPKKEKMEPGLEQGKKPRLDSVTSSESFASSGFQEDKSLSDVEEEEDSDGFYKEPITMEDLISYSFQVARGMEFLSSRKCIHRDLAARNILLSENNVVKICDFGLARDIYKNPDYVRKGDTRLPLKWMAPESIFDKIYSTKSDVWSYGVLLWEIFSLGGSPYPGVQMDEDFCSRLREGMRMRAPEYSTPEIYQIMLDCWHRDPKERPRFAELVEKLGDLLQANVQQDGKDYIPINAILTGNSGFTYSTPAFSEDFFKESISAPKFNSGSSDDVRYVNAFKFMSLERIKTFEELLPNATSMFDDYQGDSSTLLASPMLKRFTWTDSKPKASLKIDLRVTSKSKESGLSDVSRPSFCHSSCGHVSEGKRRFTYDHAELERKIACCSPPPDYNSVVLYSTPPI
Description: as §1, §2, §3, §4

CDK2 = CDK2 (Homo sapiens (Human), UniProt P24941); assay: as above; settings: for inhibition at 1 µM: read-out: % inhibition (1 μM), CDK2, 1 μM; for inhibition at 10 µM: read-out: % inhibition (10 μM), CDK2, 10 μM
Description: as §1, §2, §3, §4

ABL = ABL (Homo sapiens (Human), UniProt P00519); assay: as above; settings: for inhibition at 1 µM: read-out: % inhibition (1 μM), 1 μM; for inhibition at 10 µM: read-out: % inhibition (10 μM), 10 μM
Description: as §1, §2, §3, §4

ERK1 = ERK1 (Homo sapiens (Human), UniProt P27361); assay: as above; settings: for inhibition at 1 µM: read-out: % inhibition (1 μM), ERK1, 1 μM; for inhibition at 10 µM: read-out: % inhibition (10 μM), ERK1, 10 μM
Description: as §1, §2, §3, §4

P38a = P38a (Homo sapiens (Human), UniProt Q16539); assay: as above; settings: for inhibition at 1 µM: read-out: % inhibition (1 μM), 1 μM; for inhibition at 10 µM: read-out: % inhibition (10 μM), 10 μM
Description: as §1, §2, §3, §4

IGF1R = IGF1R (Homo sapiens (Human), UniProt P08069); assay: as above; settings: for inhibition at 1 µM: read-out: % inhibition (1 μM), 1 μM; for inhibition at 10 µM: read-out: % inhibition (10 μM), 10 μM
Chain of IGF1R (P08069 31-1367, species assumed): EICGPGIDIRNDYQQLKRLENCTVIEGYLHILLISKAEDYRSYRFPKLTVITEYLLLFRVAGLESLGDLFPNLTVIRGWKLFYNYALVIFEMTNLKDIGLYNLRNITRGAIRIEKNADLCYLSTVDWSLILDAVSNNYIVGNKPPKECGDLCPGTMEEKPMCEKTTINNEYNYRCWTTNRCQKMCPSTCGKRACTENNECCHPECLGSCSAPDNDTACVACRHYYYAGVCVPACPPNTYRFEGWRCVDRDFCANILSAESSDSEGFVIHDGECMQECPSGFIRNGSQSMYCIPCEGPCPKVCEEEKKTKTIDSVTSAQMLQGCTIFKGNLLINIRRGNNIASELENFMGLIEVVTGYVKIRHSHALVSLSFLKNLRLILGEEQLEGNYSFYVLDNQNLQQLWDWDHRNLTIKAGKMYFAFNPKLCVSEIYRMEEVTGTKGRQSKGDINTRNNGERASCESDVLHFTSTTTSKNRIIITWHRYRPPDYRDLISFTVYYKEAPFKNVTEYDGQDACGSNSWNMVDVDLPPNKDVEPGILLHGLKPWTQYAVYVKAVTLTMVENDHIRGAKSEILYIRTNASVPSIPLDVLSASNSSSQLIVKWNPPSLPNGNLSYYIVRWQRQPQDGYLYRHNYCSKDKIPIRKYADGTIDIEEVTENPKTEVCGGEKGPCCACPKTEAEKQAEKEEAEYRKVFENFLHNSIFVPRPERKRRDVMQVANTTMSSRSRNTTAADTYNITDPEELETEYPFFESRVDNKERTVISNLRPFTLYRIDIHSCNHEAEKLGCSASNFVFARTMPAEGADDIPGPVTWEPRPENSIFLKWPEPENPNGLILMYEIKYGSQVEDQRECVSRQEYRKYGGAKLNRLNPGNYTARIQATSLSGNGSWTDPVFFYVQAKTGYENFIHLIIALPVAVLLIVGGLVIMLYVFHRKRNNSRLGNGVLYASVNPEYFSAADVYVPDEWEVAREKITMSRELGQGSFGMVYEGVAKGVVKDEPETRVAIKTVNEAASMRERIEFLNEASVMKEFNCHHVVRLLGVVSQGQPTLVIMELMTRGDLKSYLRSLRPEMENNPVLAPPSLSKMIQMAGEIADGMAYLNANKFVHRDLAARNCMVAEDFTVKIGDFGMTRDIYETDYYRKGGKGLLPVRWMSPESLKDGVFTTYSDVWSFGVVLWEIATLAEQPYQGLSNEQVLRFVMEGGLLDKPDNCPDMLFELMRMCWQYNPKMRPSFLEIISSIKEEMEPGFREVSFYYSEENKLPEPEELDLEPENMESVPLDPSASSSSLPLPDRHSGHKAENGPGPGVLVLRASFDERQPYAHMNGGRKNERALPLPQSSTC
Description: as §1, §2, §3, §4

FLT3 = FLT3 (Homo sapiens (Human), UniProt P36888); assay: as above; settings: for inhibition at 1 µM: read-out: % inhibition (1 μM), FLT3, 1 μM; for inhibition at 10 µM: read-out: % inhibition (10 μM), FLT3, 10 μM
Description: as §1, §2, §3, §4

PDGFRb = PDGFRb (Homo sapiens (Human), UniProt P09619); assay: as above; settings: for inhibition at 1 µM: read-out: % inhibition (1 μM), 1 μM; for inhibition at 10 µM: read-out: % inhibition (10 μM), 10 μM
Description: as §1, §2, §3, §4

SRC = SRC (Homo sapiens (Human), UniProt P12931); assay: as above; settings: for inhibition at 1 µM: read-out: % inhibition (1 μM), 1 μM; for inhibition at 10 µM: read-out: % inhibition (10 μM), 10 μM
Chain of SRC (P12931 whole entry, looked up, species assumed): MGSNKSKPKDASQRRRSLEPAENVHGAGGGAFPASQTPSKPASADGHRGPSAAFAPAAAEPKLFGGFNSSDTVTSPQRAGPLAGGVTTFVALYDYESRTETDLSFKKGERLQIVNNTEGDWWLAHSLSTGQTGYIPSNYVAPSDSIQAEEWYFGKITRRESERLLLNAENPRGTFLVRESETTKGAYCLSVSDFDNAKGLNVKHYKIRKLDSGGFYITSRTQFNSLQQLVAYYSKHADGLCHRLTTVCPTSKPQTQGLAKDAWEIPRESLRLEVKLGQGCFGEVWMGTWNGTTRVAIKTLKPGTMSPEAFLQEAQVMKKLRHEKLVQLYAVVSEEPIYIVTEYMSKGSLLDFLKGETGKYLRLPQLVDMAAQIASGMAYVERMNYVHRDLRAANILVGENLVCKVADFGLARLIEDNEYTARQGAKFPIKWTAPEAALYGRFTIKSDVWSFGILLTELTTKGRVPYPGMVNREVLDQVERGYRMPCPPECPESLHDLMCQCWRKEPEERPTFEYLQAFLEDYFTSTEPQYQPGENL
Description: as §1, §2, §3, §4

LCK = LCK (Homo sapiens (Human), UniProt P06239); assay: as above; settings: for inhibition at 1 µM: read-out: % inhibition (1 μM), 1 μM; for inhibition at 10 µM: read-out: % inhibition (10 μM), 10 μM
Description: as §1, §2, §3, §4

PDGFRa = PDGFRa (Homo sapiens (Human), UniProt P16234); assay: as above; settings: for inhibition at 1 µM: read-out: % inhibition (1 μM), 1 μM; for inhibition at 10 µM: read-out: % inhibition (10 μM), 10 μM
Description: as §1, §2, §3, §4

PIM1 = PIM1 (Homo sapiens (Human), UniProt P11309); assay: as above; settings: for inhibition at 1 µM: read-out: % inhibition (1 μM), PIM1, 1 μM; for inhibition at 10 µM: read-out: % inhibition (10 μM), PIM1, 10 μM
Description: as §1, §2, §3, §4

cKit = cKit (Homo sapiens (Human), UniProt P10721); assay: as above; settings: for inhibition at 1 µM: read-out: % inhibition (1 μM), 1 μM; for inhibition at 10 µM: read-out: % inhibition (10 μM), 10 μM
Description: as §1, §2, §3, §4

JAK2 = JAK2 (Homo sapiens (Human), UniProt O60674); assay: as above; settings: for inhibition at 1 µM: read-out: % inhibition (1 μM), JAK2, 1 μM; for inhibition at 10 µM: read-out: % inhibition (10 μM), JAK2, 10 μM
Description: as §1, §2, §3, §4

GSK3b = GSK3b (Homo sapiens (Human), UniProt P49841); assay: as above; settings: for inhibition at 1 µM: read-out: % inhibition (1 μM), 1 μM; for inhibition at 10 µM: read-out: % inhibition (10 μM), 10 μM
Chain of GSK3b (P49841 whole entry, species assumed): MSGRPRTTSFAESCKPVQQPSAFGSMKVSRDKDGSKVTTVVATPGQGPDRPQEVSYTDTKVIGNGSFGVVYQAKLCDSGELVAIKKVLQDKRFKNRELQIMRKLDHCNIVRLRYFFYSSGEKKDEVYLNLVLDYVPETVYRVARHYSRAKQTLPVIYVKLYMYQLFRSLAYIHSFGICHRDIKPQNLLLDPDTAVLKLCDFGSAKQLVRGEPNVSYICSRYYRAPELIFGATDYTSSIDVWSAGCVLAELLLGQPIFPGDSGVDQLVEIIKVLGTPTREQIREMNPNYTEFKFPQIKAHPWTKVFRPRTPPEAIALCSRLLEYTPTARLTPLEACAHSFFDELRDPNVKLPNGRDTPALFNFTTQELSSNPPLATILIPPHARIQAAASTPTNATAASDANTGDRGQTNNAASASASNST
Description: as §1, §2, §3, §4

IKKB = IKKB (Homo sapiens (Human), UniProt O14920); assay: as above; settings: for inhibition at 1 µM: read-out: % inhibition (1 μM), 1 μM; for inhibition at 10 µM: read-out: % inhibition (10 μM), 10 μM
Description: as §1, §2, §3, §4

FGFR1 = FGFR1 (Homo sapiens (Human), UniProt P11362); assay: as above; settings: for inhibition at 1 µM: read-out: % inhibition (1 μM), FGFR1, 1 μM; for inhibition at 10 µM: read-out: % inhibition (10 μM), FGFR1, 10 μM
Description: as §1, §2, §3, §4

HER4 = HER4 (Homo sapiens (Human), UniProt Q15303); assay: as above; settings: for inhibition at 1 µM: read-out: % inhibition (1 μM), HER4, 1 μM; for inhibition at 10 µM: read-out: % inhibition (10 μM), HER4, 10 μM
Description: as §1, §2, §3, §4

FGFR3 = FGFR3 (Homo sapiens (Human), UniProt P22607); assay: as above; settings: for inhibition at 1 µM: read-out: % inhibition (1 μM), FGFR3, 1 μM; for inhibition at 10 µM: read-out: % inhibition (10 μM), FGFR3, 10 μM
Chain of FGFR3 (P22607 23-806, species assumed): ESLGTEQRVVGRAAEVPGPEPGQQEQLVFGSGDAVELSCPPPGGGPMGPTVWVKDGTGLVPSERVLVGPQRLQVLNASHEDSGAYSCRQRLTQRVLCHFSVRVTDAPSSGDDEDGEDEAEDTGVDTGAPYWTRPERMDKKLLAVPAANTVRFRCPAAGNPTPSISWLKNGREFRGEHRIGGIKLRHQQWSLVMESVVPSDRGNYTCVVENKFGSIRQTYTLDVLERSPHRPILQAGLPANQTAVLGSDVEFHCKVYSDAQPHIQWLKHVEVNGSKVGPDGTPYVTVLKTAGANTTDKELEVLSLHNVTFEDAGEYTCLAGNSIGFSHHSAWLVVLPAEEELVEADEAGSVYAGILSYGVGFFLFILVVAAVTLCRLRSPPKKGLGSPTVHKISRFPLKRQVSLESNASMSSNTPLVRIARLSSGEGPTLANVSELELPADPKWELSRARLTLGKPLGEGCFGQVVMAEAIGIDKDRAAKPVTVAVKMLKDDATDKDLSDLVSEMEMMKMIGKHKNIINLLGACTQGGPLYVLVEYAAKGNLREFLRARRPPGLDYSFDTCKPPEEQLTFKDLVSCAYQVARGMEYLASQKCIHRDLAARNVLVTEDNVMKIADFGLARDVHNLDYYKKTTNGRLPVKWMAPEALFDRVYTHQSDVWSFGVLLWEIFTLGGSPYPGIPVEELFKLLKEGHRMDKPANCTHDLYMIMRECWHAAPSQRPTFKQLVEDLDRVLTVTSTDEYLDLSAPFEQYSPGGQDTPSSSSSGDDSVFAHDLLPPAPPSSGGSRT
Description: as §1, §2, §3, §4

KDR = KDR (Homo sapiens (Human), UniProt P35968); assay: as above; settings: for inhibition at 1 µM: read-out: % inhibition (1 μM), 1 μM; for inhibition at 10 µM: read-out: % inhibition (10 μM), 10 μM
Description: as §1, §2, §3, §4

C-MET = C-MET (Homo sapiens (Human), UniProt P08581); assay: as above; settings: for inhibition at 1 µM: read-out: % inhibition (1 μM), 1 μM; for inhibition at 10 µM: read-out: % inhibition (10 μM), 10 μM
Description: as §1, §2, §3, §4

AUR B = AUR B (Homo sapiens (Human), UniProt Q96GD4); assay: as above; settings: for inhibition at 1 µM: read-out: % inhibition (1 μM), 1 μM; for inhibition at 10 µM: read-out: % inhibition (10 μM), 10 μM
Description: as §1, §2, §3, §4

PKACa = PKACa (Homo sapiens (Human), UniProt P17612); assay: as above; settings: for inhibition at 1 µM: read-out: % inhibition (1 μM), 1 μM; for inhibition at 10 µM: read-out: % inhibition (10 μM), 10 μM
Description: as §1, §2, §3, §4

HER2 = HER2 (Homo sapiens (Human), UniProt P04626); assay: as above; settings: for inhibition at 1 µM: read-out: % inhibition (1 μM), HER2, 1 μM; for inhibition at 10 µM: read-out: % inhibition (10 μM), HER2, 10 μM
Description: as §1, §2, §3, §4

EGFR-L858R/T790M = EGFR-L858R/T790M (Homo sapiens (Human), UniProt P00533, L858R/T790M); assay: In vitro EGFR kinase activity assay (Z'-Lyte); settings: read-out: Inhibitory activity on EGFR kinase (IC50, nM) T790M/L858R;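 also: Cell-free kinase reaction with peptide substrate and ATP, 1.5 h at room temperature, development cleaving unphosphorylated peptide, 10-point dilution 0.051–1000 nM, phosphopeptide as 100% phosphorylation control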
Description: Inhibitory effects in vitro of the compounds provided in the present invention on EGFR kinase activity was tested as follows:
10 concentration gradients, from 5.1×10^−11 mol/L to 1.0×10^−6 mol/L, were set for all of the compounds to be tested.
10 μL of kinase reaction system comprised 2.5 μL of compound solution, 5 μL of Kinase/peptide mixture, and 2.5 μL of ATP solution. 5 μL of phosphopeptide solution was used in place of kinase/peptide mixture as 100% phosphorylation control. […] After thoroughly mixing the solution within the plate, the plate was incubated at room temperature for 1.5 hours. 5 μL of DevelopmentSolution was added into each well, and then the plate was incubated at room temperature for another 1 hour, and non-phosphorylated peptide was cleaved within this period. Finally, the reaction was quenched by adding 5 μL of Stop Reagent. The Plate was measured with EnVision Multilabel Reader (Perkin Elmer). Experimental data were calculated by using GraphPad Prism version 4.0. Each experiment was repeated more than three times.

C=CC(=O)Nc1cccc(-n2c(=O)cnc3cnc(Nc4ccc(N5CCN(C)CC5)cc4)nc32)c1 [Compound 020, N-(3-(2-(4-(4-methyl-1-piperazinyl)-phenylamino)-7-oxo-8(7H)-pteridin-yl)phenyl) acrylamide]
inhibition at 1 µM (LYNA): 11%
inhibition at 10 µM (LYNA): 40%
inhibition at 1 µM (BLK): 99%
inhibition at 10 µM (BLK): 100%
inhibition at 1 µM (FLT1): 17%
inhibition at 10 µM (FLT1): 58%
inhibition at 1 µM (CDK2): 18%
inhibition at 10 µM (CDK2): 49%
inhibition at 1 µM (ABL): 11%
inhibition at 10 µM (ABL): 39%
inhibition at 1 µM (ERK1): 1.3%
inhibition at 10 µM (ERK1): 19%
inhibition at 1 µM (P38a): 2.8%
inhibition at 10 µM (P38a): 21%
inhibition at 1 µM (IGF1R): 21%
inhibition at 10 µM (IGF1R): 36%
inhibition at 1 µM (FLT3): 82%
inhibition at 10 µM (FLT3): 99%
inhibition at 1 µM (PDGFRb): 42%
inhibition at 10 µM (PDGFRb): 84%
inhibition at 1 µM (SRC): 27%
inhibition at 10 µM (SRC): 72%
inhibition at 1 µM (LCK): 18%
inhibition at 10 µM (LCK): 73%
inhibition at 1 µM (PDGFRa): 4.9%
inhibition at 10 µM (PDGFRa): 35%
inhibition at 1 µM (PIM1): 8.2%
inhibition at 10 µM (PIM1): 54%
inhibition at 1 µM (cKit): -12%
inhibition at 10 µM (cKit): -3.2%
inhibition at 1 µM (JAK2): 22%
inhibition at 10 µM (JAK2): 36%
inhibition at 1 µM (GSK3b): 16%
inhibition at 10 µM (GSK3b): 34%
inhibition at 1 µM (IKKB): 9.4%
inhibition at 10 µM (IKKB): 2%
inhibition at 1 µM (FGFR1): 19%
inhibition at 10 µM (FGFR1): 63%
inhibition at 1 µM (HER4): 60%
inhibition at 10 µM (HER4): 72%
inhibition at 1 µM (FGFR3): 14%
inhibition at 10 µM (FGFR3): 33%
inhibition at 1 µM (KDR): 25%
inhibition at 10 µM (KDR): 73%
inhibition at 1 µM (C-MET): 27%
inhibition at 10 µM (C-MET): 53%
inhibition at 1 µM (AUR B): 52%
inhibition at 10 µM (AUR B): 87%
inhibition at 1 µM (PKACa): 15%
inhibition at 10 µM (PKACa): 4.7%
inhibition at 1 µM (HER2): 97%
inhibition at 10 µM (HER2): 98%
IC50 (EGFR-L858R/T790M): 0.824 nM

C=CC(=O)Nc1cccc(-n2c(=O)cnc3cnc(Nc4ccc(N5CCN(C)CC5)cc4OC)nc32)c1 [Compound 032, N-(3-(2-(2-methoxy-4-(4-methyl-1-piperazinyl)-phenylamino)-7-oxo-8(7H)-pteridin-yl)phenyl)acrylamide]
inhibition at 1 µM (LYNA): 6.1%
inhibition at 10 µM (LYNA): 20%
inhibition at 1 µM (BLK): 85%
inhibition at 10 µM (BLK): 99%
inhibition at 1 µM (FLT1): 9.4%
inhibition at 10 µM (FLT1): 11%
inhibition at 1 µM (CDK2): 25%
inhibition at 10 µM (CDK2): 48%
inhibition at 1 µM (ABL): 5.8%
inhibition at 10 µM (ABL): 13%
inhibition at 1 µM (ERK1): 11%
inhibition at 10 µM (ERK1): -4%
inhibition at 1 µM (P38a): -5.6%
inhibition at 10 µM (P38a): 1.2%
inhibition at 1 µM (IGF1R): 15%
inhibition at 10 µM (IGF1R): 37%
inhibition at 1 µM (FLT3): 60%
inhibition at 10 µM (FLT3): 91%
inhibition at 1 µM (PDGFRb): 14%
inhibition at 10 µM (PDGFRb): 61%
inhibition at 1 µM (SRC): 6.6%
inhibition at 10 µM (SRC): 33%
inhibition at 1 µM (LCK): 14%
inhibition at 10 µM (LCK): 54%
inhibition at 1 µM (PDGFRa): 1.2%
inhibition at 10 µM (PDGFRa): 18%
inhibition at 1 µM (PIM1): 2.1%
inhibition at 10 µM (PIM1): 8.9%
inhibition at 1 µM (cKit): -9.3%
inhibition at 10 µM (cKit): -4.8%
inhibition at 1 µM (JAK2): 9.9%
inhibition at 10 µM (JAK2): 22%
inhibition at 1 µM (GSK3b): 12%
inhibition at 10 µM (GSK3b): 16%
inhibition at 1 µM (IKKB): -3.3%
inhibition at 10 µM (IKKB): -4.3%
inhibition at 1 µM (FGFR1): 7.9%
inhibition at 10 µM (FGFR1): 42%
inhibition at 1 µM (HER4): 60%
inhibition at 10 µM (HER4): 77%
inhibition at 1 µM (FGFR3): 11%
inhibition at 10 µM (FGFR3): 13%
inhibition at 1 µM (KDR): 3.8%
inhibition at 10 µM (KDR): 29%
inhibition at 1 µM (C-MET): 13%
inhibition at 10 µM (C-MET): 28%
inhibition at 1 µM (AUR B): 32%
inhibition at 10 µM (AUR B): 69%
inhibition at 1 µM (PKACa): 6.9%
inhibition at 10 µM (PKACa): 4%
inhibition at 1 µM (HER2): 89%
inhibition at 10 µM (HER2): 100%
IC50 (EGFR-L858R/T790M): 1.17 nM
